From patent US20220175916A1, “METHODS AND COMPOSITIONS FOR TREATING CHRONIC EFFECTS OF RADIATION AND CHEMICAL EXPOSURE” (priority 2018, published 2022)

System: pancreatic cancer PANG-1 cell line
Test: Fluorescence microscopy study of etoposide-induced senescence and anti-AGE antibody staining
Type: cell-based
Details: 12.5 μM for 24 hours
Experimental: Cells from the pancreatic cancer PANG-1 cell line were treated with 12.5 μM etoposide, a chemotherapeutic agent, for 24 hours to induce senescence. Control cells were treated with dimethyl sulfoxide (DMSO) vehicle for 24 hours. The cells were then stained with a senescence β-galactosidase staining kit, an anti-AGE antibody conjugated to green fluorescent protein (GFP) or an anti-AGE antibody conjugated to GFP and 4′,6-diamidino-2-phenylindole (DAPI). GFP-stained cells appear green and DAPI-stained cells appear blue under fluorescence microscopy.
(§1) FIG. 2A illustrates the untreated cells after staining with the senescence β-galactosidase staining kit. FIG. 2B illustrates the untreated cells after staining with the anti-AGE antibody conjugated to GFP. FIG. 2C illustrates the untreated cells after staining with the anti-AGE antibody conjugated to GFP-DAPI. FIGS. 2B and 2C have been brightened to enhance contrast. The untreated cells appear relatively uniform in size and shape and are densely packed.
as §1, with “2D” for “2A”, “etoposide-treated” for “untreated”, “2E” for “2B”, “2F” for “2C”, “contrast.” for “contrast. The untreated cells appear relatively uniform in size and shape and are densely packed.”

For COc1cc([C@@H]2c3cc4c(cc3[C@@H](O[C@@H]3O[C@@H]5CO[C@@H](C)O[C@H]5[C@H](O)[C@H]3O)[C@H]3COC(=O)[C@H]23)OCO4)cc(OC)c1O [etoposide], the “Appearance of treated cells (senescence)” value was “irregular appearance, are larger in size and are loosely packed”.
